Experimental findings from patent publication US8835440B2, “Cyclic pyrimidin-4-carboxamides as CCR2 receptor antagonists for treatment of inflammation, asthma and COPD” (Boehringer Ingelheim International GmbH, priority 2008, dated 2014) are described below.

The target of the first test is T1, CCR2 (Homo sapiens, UniProt P41597).
T1 construct: Membranes were prepared from THP-1 cells; endogenous in cells; host or cells: THP-1 cells (membrane preparation)
T1 sequence (P41597 1-360 isoform P41597-2): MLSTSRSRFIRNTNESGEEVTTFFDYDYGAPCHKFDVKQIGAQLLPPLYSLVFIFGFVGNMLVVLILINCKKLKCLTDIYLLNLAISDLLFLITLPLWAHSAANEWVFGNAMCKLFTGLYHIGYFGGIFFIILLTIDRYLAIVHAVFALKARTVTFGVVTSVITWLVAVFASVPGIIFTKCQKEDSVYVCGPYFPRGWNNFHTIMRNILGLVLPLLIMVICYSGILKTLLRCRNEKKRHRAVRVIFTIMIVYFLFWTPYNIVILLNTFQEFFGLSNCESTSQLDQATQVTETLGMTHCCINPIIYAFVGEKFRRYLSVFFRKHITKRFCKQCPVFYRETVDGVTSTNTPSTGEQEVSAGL
The experiment in a line: CCR2 receptor membrane binding assay ([125I]MCP-1, THP-1 cell membranes, SPA beads). The conditions noted are these: @ 10 μM test compound; THP-1 membranes; read-out: CCR2 % ctrl @ 10 μM. The protocol:
The above exemplary substances have been tested for binding to CCR2 using a binding assay as outlined herein below:
THP-1 cells (human acute monocytic leukaemia cells) were cultured under standardized conditions at 37° C. and 5% CO2 in a humidified incubator. THP-1 cells were cultivated in RPMI 1640 medium (Gibco 21875) containing 1% MEM-NEAA (Gibso 11140) 2 mM L-glutamine, 1.5 g/L sodium bicarbonate, 4.5 g/L glucose, 10 mM HEPES and 1.0 mM sodium pyruvate, 90%; 10% fetal calf serum (FCS Gibco 10500-064).
Membranes were prepared from THP-1 cells. THP-1 cells were centrifuged at 300×g at 4° C. for 10 min. The cell pellet was resuspendet in Phosphate Buffer Saline (PBS, including 10 μM Pefabloc and a protease inhibitor mix ‘complete’, Boehringer Mannheim (1 tablet/50 ml)), to a concentration of […]. The membrane preparation was performed by disrupting the cells by nitrogen […] (at 50 bar, for 1 h) in a “Nitrogen Bombe” (Parr Instrument). Cell debris was removed by centrifugation (800×g at 4° C., 1 min). The supernatant was centrifuged at 80000×g, 4° C. for 30 min to sediment the cell membranes. Usually 50 mg of protein (Bradford assay) were yielded from 1×10E9 cells. The membranes were resuspendet in 25 mM HEPES, 25 mM MgCl2, 1 mM CaCl2, 10% Glycerine for storage in aliquots at −80° C. in 25 mM HEPES, 25 mM MgCl2, 1 mM CaCl2, 10% Glycerine and stored at −80° C.
Receptor Membrane Binding Assay:
Perkin Elmer NEX 332 Jod 125 MCP-1, Stock: 2200 Ci/mmol solved in 2000 μl assay buffer, stored at −20° C. THP-1 membrane were adjusted with 25 mM HEPES, pH 7.2; 5 mM MgCl2; 0.5 mM CaCl2; 0.2% BSA assay buffer to a concentration of […]. Amersham Biosciences PVT-WGA Beads (RPNQ0001) were adjusted with assay buffer to a concentration of 0.24 mg/30 μl. For preparation of the membrane-bead-suspension membranes and beads were incubated for 30 min at RT under rotation (60 rpm) with a ratio of 1:2. Test compounds dissolved in 100% DMSO to a concentration of 10 mM and are further diluted with 100% DMSO to 1 mM. All additional compound dilutions were obtained with assay buffer, final 1% DMSO. Compounds, membrane-bead-suspension and [125I]MCP-1 (ca. 25000 cpm/10 μl) were incubated. Bound radioactivity was determined by scintillation counter after 8 h. Determination of affinity of test compounds (dissociation constant hKi) is calculated by iterative fitting of experimental data using the “easy sys” program, which is based on law of mass action (Schittkowski K. (1994), Numerische Mathematik, Vol. 68, 129-142).
For `COC1CCN(C2CCN(C(=O)c3ncnc(NCC4CCN(c5ccccc5)CC4)c3C)CC2)CC1` [Example 96], the remaining activity at 10 µM stood at 21%.
Same read-out and setting: to `COC1CCN(C2CCN(C(=O)c3ncnc(NCC4CCCN(c5ccccc5)C4)c3C)CC2)CC1` (centres unmarked) [Example 97] belongs 17%; to `COC1CCN(C2CCN(C(=O)c3ncnc(NCc4ccc(C)c(Cl)c4)c3C)CC2)CC1` [Example 98], 2%; to `Cc1c(NCCc2ccccc2)ncnc1C(=O)N1CCC(N2CCC(O)CC2)CC1` [Example 99], 32%.
Still for that read-out and setting: the result for `Cc1c(NCc2cccc(-c3ccccc3)c2)ncnc1C(=O)N1CCC(N2CCCC(O)C2)CC1` (centres unmarked) [Example 100] reads 18%; that for `Cc1c(NCc2ccc(-c3ccccc3)cc2)ncnc1C(=O)N1CCC(N2CCC(O)CC2)CC1` [Example 101], 35%.
On to `Cc1c(NCc2cccc(-c3ccccc3)c2)ncnc1C(=O)N1CCC(N2CCC(O)CC2)CC1` [Example 102], for which the remaining activity at 10 µM worked out at 15%.
Same read-out and setting: to `O=C(c1cc(NCc2ccc(-c3ccccc3)cc2)ncn1)N1CCC(N2CCCC(O)C2)CC1` (centres unmarked) [Example 103] belongs 30%.
For the molecule `COc1ccc(CCNc2ncnc(C(=O)N3CCC(N4CCC(O)CC4)CC3)c2C)cc1Cl` [Example 105], the remaining activity at 10 µM was 31%.
Regarding `Cc1c(NCCc2ccc(C(C)C)cc2)ncnc1C(=O)N1CCC(N2CCC(O)CC2)CC1` [Example 106], the remaining activity at 10 µM is 13%.
Still for that read-out and setting: to `Cc1c(NCc2ccc(Cl)c(Cl)c2)ncnc1C(=O)N1CCC(N2CCOCC2)CC1` [Example 107] belongs 12%.
Still for that read-out and setting: to `Cc1c(NCC2CCCCC2)ncnc1C(=O)N1CCC(N2CCC(O)CC2)CC1` [Example 108] belongs 20%; to `Cc1c(NCc2ccc(Cl)c(Cl)c2)ncnc1C(=O)N1CCC(N2CCC(O)CC2)CC1` [Example 109], 11%.
Still for that read-out and setting: to `Cc1c(NCc2ccc(Cl)cc2)ncnc1C(=O)N1CCC(N2CCC(O)CC2)CC1` [Example 110] belongs 28%; to `Cc1c(NCc2ccc(F)c(Cl)c2)ncnc1C(=O)N1CCC(N2CCC(O)CC2)CC1` [Example 111], 27%; to `Cc1c(NCCc2ccc(C(C)(C)C)cc2)ncnc1C(=O)N1CCC(N2CCC(O)CC2)CC1` [Example 112], 21%.
For the molecule `Cc1c(NCC2CCN(c3ccccc3)CC2)ncnc1C(=O)N1CCC(N2CCC(O)CC2)CC1` [Example 113], the remaining activity at 10 µM was determined as 46%.
Still for that read-out and setting: the result for `Cc1c(NCC2CCCC(c3ccccc3)C2)ncnc1C(=O)N1CCC(N2CCC(O)CC2)CC1` (centres unmarked) [Example 114] reads 8%; that for `Cc1c(NCCc2ccc(F)c(F)c2)ncnc1C(=O)N1CCC(N2CCC(O)CC2)CC1` [Example 115], 33%.

Staying with this test, now noted: dissociation constant hKi; [125I]MCP-1 binding to THP-1 membranes.
`COC1CCN(C2CCN(C(=O)c3ncnc(NCC4CCN(c5ccccc5)CC4)c3C)CC2)CC1` [Example 96] had a Ki of 939 nM.
Take `COC1CCN(C2CCN(C(=O)c3ncnc(NCC4CCCN(c5ccccc5)C4)c3C)CC2)CC1` (centres unmarked) [Example 97]: the affinity corresponds to a Ki of 665 nM.
The same measure, in the same setting: the result for `COC1CCN(C2CCN(C(=O)c3ncnc(NCc4ccc(C)c(Cl)c4)c3C)CC2)CC1` [Example 98] reads 214 nM; that for `Cc1c(NCCc2ccccc2)ncnc1C(=O)N1CCC(N2CCC(O)CC2)CC1` [Example 99], 1830 nM; that for `Cc1c(NCc2cccc(-c3ccccc3)c2)ncnc1C(=O)N1CCC(N2CCCC(O)C2)CC1` (centres unmarked) [Example 100], 395 nM.
On the same count and under the same terms, the result for `Cc1c(NCc2ccc(-c3ccccc3)cc2)ncnc1C(=O)N1CCC(N2CCC(O)CC2)CC1` [Example 101] reads 986 nM; that for `Cc1c(NCc2cccc(-c3ccccc3)c2)ncnc1C(=O)N1CCC(N2CCC(O)CC2)CC1` [Example 102], 224 nM.
Still for that read-out and setting: the result for `O=C(c1cc(NCc2ccc(-c3ccccc3)cc2)ncn1)N1CCC(N2CCCC(O)C2)CC1` (centres unmarked) [Example 103] reads 1610 nM.
In the case of `COc1ccc(CCNc2ncnc(C(=O)N3CCC(N4CCC(O)CC4)CC3)c2C)cc1Cl` [Example 105], the Ki stood at 687 nM.
The same measure, in the same setting: the result for `Cc1c(NCCc2ccc(C(C)C)cc2)ncnc1C(=O)N1CCC(N2CCC(O)CC2)CC1` [Example 106] reads 405 nM; that for `Cc1c(NCc2ccc(Cl)c(Cl)c2)ncnc1C(=O)N1CCC(N2CCOCC2)CC1` [Example 107], 232 nM; that for `Cc1c(NCC2CCCCC2)ncnc1C(=O)N1CCC(N2CCC(O)CC2)CC1` [Example 108], 627 nM.
Take `Cc1c(NCc2ccc(Cl)c(Cl)c2)ncnc1C(=O)N1CCC(N2CCC(O)CC2)CC1` [Example 109]: the Ki worked out at 213 nM.
Still for that read-out and setting: to `Cc1c(NCc2ccc(Cl)cc2)ncnc1C(=O)N1CCC(N2CCC(O)CC2)CC1` [Example 110] belongs 527 nM; to `Cc1c(NCc2ccc(F)c(Cl)c2)ncnc1C(=O)N1CCC(N2CCC(O)CC2)CC1` [Example 111], 464 nM.
`Cc1c(NCCc2ccc(C(C)(C)C)cc2)ncnc1C(=O)N1CCC(N2CCC(O)CC2)CC1` [Example 112] returned a Ki of 378 nM.
On to `Cc1c(NCC2CCN(c3ccccc3)CC2)ncnc1C(=O)N1CCC(N2CCC(O)CC2)CC1` [Example 113], for which the affinity, expressed as Ki, was 3310 nM.
On the same count and under the same terms, the result for `Cc1c(NCC2CCCC(c3ccccc3)C2)ncnc1C(=O)N1CCC(N2CCC(O)CC2)CC1` (centres unmarked) [Example 114] reads 62 nM; that for `Cc1c(NCCc2ccc(F)c(F)c2)ncnc1C(=O)N1CCC(N2CCC(O)CC2)CC1` [Example 115], 847 nM.
